Results taken from US20100324150A1, “HYPERBRANCHED POLYGLYCEROL FOR IMPROVING HEART FUNCTION” (THE UNIVERSITY OF BRITISH COLUMBIA, priority 2007, published 2010).

Legend:
H9C2 cells = assay: Lactate production by H9C2 cells; format: cell-based, rat; conditions: for Lactate concentration / production in H9C2 cells (in words): relative to control
Protocol: H9C2 (2-1) embryonic rat heart cells (passage 12, obtained from American Type Culture Collection, Manassas, Va.) were cultured in Dulbecco's modified Eagle's medium (DMEM—Gibco-Invitrogen) containing 10% fetal bovine serum (FBS) and 100 U/ml penicillin-streptomycin at 37° C. in a humidified atmosphere containing 5% CO2. The cells were subcultured into 60 mm culture dishes when 80% confluent (before fusion into myotubes occurred) and were differentiated toward a cardiac phenotype by exposure to DMEM containing 1% horse serum and 0.1 μM all-trans retinoic acid (Sigma) for four days (Menard et al 1999. J Biol Chem 274:29063-70; Bronstrom et al 2000. Int J. Biochem Cell Biol 32:993-1006). Retinoic acid was prepared in the dark in DMSO and stored at −20° C. The concentration of DMSO in the culture media was less than 0.2%. Media was changed daily.
To screen for metabolic actions of dHPGs, H9C2 cells were exposed to a range of dHPG concentration (0.001 to 100 μM). Studies were conducted over six hours in serum-free Krebs-Henseleit (KH) solution (118 mM NaCl, 4.7 mM KCl, 1.2 mM KH2PO4, 1.2 mM MgSO4, 2.0 mM CaCl2, 25 mM NaHCO3, 0.4 mM Na2CO3) containing 0.4 mM palmitate (bound to fatty-acid free albumin), 5.5 mM glucose and 20 mU/L insulin. Aliquots of media (60 μl) were taken at 3 and 6 hours. Viability of cells was assessed by visual inspection of cell morphology using a microscope and by assessment of mitochondrial integrity (MTS—Promega). Accumulation of lactate in the bathing solution over 6 hrs was measured using a diagnostic kit (Sigma, St. Louis, Mo.). Lactate accumulation was expressed as μmol/mg protein. Protein content of the cultures was determined using a commercial Bicinchoninic Acid (BCA) protein assay kit from Sigma (St. Louis, Mo.). Pharmacological agents used as controls included Dicholoracetate (DCA), which directly stimulates glucose oxidation by activating pyruvate dehydrogenase and causes a reduction in lactate.
A variety of dHPG polymers were administered to H9C2 cells in culture and the lactate production analyzed (Tables 2, 3; FIGS. 1a, b). […] Concentration range data (0.0001 to 250.0 uM), as well as controls (dichloroacetate-7.5 mM, DCA-BDH), a group exposed to oxfenicine (2 mM, OXF-Fluka), and a group exposed to oligomycin (2.0 μM, Oligo-Sigma).

[1] = system: isolated working rat hearts; assay: Isolated working rat hearts, normoxic non-ischemic perfusion
Protocol: Hearts from halothane (3-4%)-anesthetized male Sprague-Dawley rats were isolated and perfused as working preparations with Krebs-Henseleit (KH) solution at a left atrial preload of 11.5 mmHg and an aortic afterload of 80 mmHg in a closed recirculating system with oxygenated (95% O2-5% CO2) Krebs-Henseleit (KH) solution maintained at 37° C., as described (Burelle et al 2004. Am J Physiol Heart Circ Physiol 287:H1055-63; Allard et al 1994. Am J Physiol 267:H742-H750; Saeedi et al 2006. BMC Cardiovasc Disord 6:8). A first series of hearts was perfused with KH solution containing 0.6 or 1.2 mM [1-^14C]- or [9,10-^3H]-palmitate, prebound to fatty acid-free albumin (3%), together with 5.5 mM glucose, 0.5 mM lactate, and 20 mU/l insulin in order to measure rates of palmitate oxidation. A second series of hearts was perfused with KH solution containing 0.6 or 1.2 mM palmitate, 5.5 mM [5-^3H/U-^14C]-glucose, 0.5 mM lactate, and 20 mU/l insulin in order to measure glycolysis and glucose oxidation. Concentrations of insulin and substrates reflect values seen under physiologic and pathophysiologic conditions. […]
Heart rate and systolic pressure may be measured using a pressure transducer (Viggo-Spectramed, Oxnard, Calif.) inserted in the afterload line of the isolated heart. Cardiac output and aortic flow may be measured via external flow probes (Transonic Systems, Ithaca, N.Y.) on the left atrial preload and aortic afterload lines, respectively. External work performed by the heart is expressed as, “rate-pressure product”, the product of heart rate and peak systolic pressure, and “hydraulic work”, the product of cardiac output and peak systolic pressure. […]
Isolated, working rat hearts were exposed to 10 μM dHPG-85K-G71.4-C181.9-PEG26.7(RKK-108) and studied under normoxic, non-ischemic conditions. During normoxic, non-ischemic perfusion, RKK108 improves heart function (rate-pressure assessment—beats per minute×mmHg/1000) by about 10 to about 15% (FIG. 2), When heart function is assessed by hydraulic work an improvement of about 20% is also observed.

Row | SMILES | Lactate Production by H9C2 Cells (H9C2 cells; 7.5 mM) [% Control] | Lactate Production by H9C2 Cells (H9C2 cells; 2 μM) [% Control] | Lactate concentration / production in H9C2 cells (in words) (H9C2 cells) | Glycolysis [1] | Glucose oxidation ([1]; RKK108 10 μM) | Palmitate oxidation ([1]; RKK108 10 μM) | Lactate Production by H9C2 Cells (H9C2 cells; 2 mM) [% Control]
1 | O=C(O)C(Cl)Cl [DCA, dichloroacetate] | 63 ± 5 | – | – | – | – | – | –
2 | CC[C@H]1/C=C/C=C/C[C@@H](C)[C@H](O)[C@@](C)(O)C(=O)[C@@H](C)[C@H](O)[C@@H](C)C(=O)[C@@H](C)[C@H](O)[C@@H](C)/C=C/C(=O)O[C@@H]2[C@H](C)[C@H](CC1)O[C@]1(CC[C@H](C)[C@H](C[C@@H](C)O)O1)[C@H]2C [Oligomycin] | – | 226 ± 10 | increase in lactate concentration, greater than that of OXF-treated samples | – | – | – | –
3 | N[C@H](C(=O)O)c1ccc(O)cc1 [Oxfenicine] | – | – | increase in lactate | accelerates both glucose oxidation and glycolysis | accelerates both glucose oxidation and glycolysis | reduces palmitate oxidation | 130 ± 7
